From the NIST ThermoML archive (doi:10.1016/j.tca.2013.07.012)

Assays:
[1] = xn = mol fraction of the nth substance listed; conditions: 101 kPa, Liquid, Vibrating tube method, x2 = 0
[2] = 101 kPa, Liquid, Vibrating tube method

O [water] + OCC(O)CO
[1]
Conditions | mass density [kg/m3]
274.15 K | 999.9
275.15 K | 999.94
276.15 K | 999.96
277.15 K | 999.97
278.15 K | 999.96
279.15 K | 999.94
280.15 K | 999.9
281.15 K | 999.85
282.15 K | 999.78
283.15 K | 999.7
323.15 K | 988.03
333.15 K | 983.19
348.15 K | 974.84

OCC(O)CO [glycerol]
[2]
Conditions | mass density [kg/m3]
278.15 K | 1270.87
288.15 K | 1264.4
293.15 K | 1260.99
298.15 K | 1257.91
308.15 K | 1251.66
323.15 K | 1242.11
333.15 K | 1235.71
348.15 K | 1225.79

O [water]
[2]
Conditions | mass density [kg/m3]
274.15 K | 999.9
275.15 K | 999.94
276.15 K | 999.96
277.15 K | 999.97
278.15 K | 999.96
279.15 K | 999.94
280.15 K | 999.9
281.15 K | 999.85
282.15 K | 999.78
283.15 K | 999.7
323.15 K | 988.03
333.15 K | 983.19
348.15 K | 974.84
